Experimental data taken from patent US20120107246A1, “METHOTREXATE-MODIFIED NANOPARTICLES AND RELATED METHODS” (WASHINGTON, UNIVERSITY OF, priority 2005, published 2012).

Columns and labels:
9L cells = experiment: leucovorin rescue of 9L cells exposed to free methotrexate; format: cell-based, rat
From the text: Methotrexate induces apoptosis in cells through inhibition of the folic acid cycle by acting on the enzyme, dihydrofolate reductase (DHFR). The substitution of a […] at position four of the pteridine ring transforms the molecule from a substrate of DHFR to a tight binder. […] Leucovorin (folinic acid) is commonly used in high dose chemotherapy to rescue the folic acid cycle in healthy cells and reduce the deleterious side effect of the therapy. Leucovorin rescues the cell cycle by being actively metabolized into reduced folates, increasing the intracellular concentration of the reduced folates within the cytoplasm. […] Previous studies used leucovorin to rescue MCF-7 and HeLa cells following exposure to free methotrexate, but no studies have been reported in using leucovorin for the 9L cell line. Thus, the first step in this study was to determine whether the 9L cells would respond to leucovorin induced rescue following the cellular exposure to free methotrexate.

[1] = in humans; cited from earlier work
HeLa cells = experiment: cell viability (surviving fraction) by cell count; conditions: up to 120 hours in culture, nanoparticles 0.01-0.1 mg/mL iron, soluble methotrexate 2 μg/mL
Procedure: Human breast cancer cells (MCF-7), and human cervical cancer cells (HeLa) were obtained from the Fred Hutchinson Cancer Research Center, Seattle, Wash. Cells were grown in T-75 flasks with RPMI Media (Invitrogen) supplemented with 10% fetal calf serum, 5958 mg/mL HEPES, 300 mg/mL L-Glutamine, 50 ug/mL streptomycin and 50 IU/mL penicillin. Cells were cultured at 37° C. in a humidified atmosphere with 5% CO2 with the medium being changed every third day. The cells were transferred to RPMI-1640 folate free medium (Invitrogen) 24 hours prior to plating. The cells were then subcultured in 24-well plates at a concentration of 25,000 cells/mL in RPMI-1640 folate-free medium. […] In addition, a control media containing soluble methotrexate was prepared at a concentration of 2 μg/mL. Cells were also cultured in 1 mL medium without nanoparticles as the control. The cell culture proceeded for 24, 48, 72, 96, and 120 hours respectively at which time, the cells were washed three times with 1 mL of Hank's Balanced Salt Solution (HBSS, Invitrogen), detached with 500 μL of 0.25% trypsin-EDTA (Sigma), and resuspended in 1 mL of Phosphate Buffered Saline (PBS) supplemented with 10% FBS. Cell viability was determined by cell count via a model Z1 Beckman particle counter.

| SMILES | leucovorin concentration at which cells showed continued proliferation (9L cells; 9L cells after 2 hours exposure to methotrexate, 48 hours incubation with LV) | sufficient concentration of LV to ensure cell rescue (9L cells; 9L cells after methotrexate exposure) | half-life [1] | reduction in cell viability / cytotoxicity (HeLa cells) |
| --- | --- | --- | --- | --- |
| Nc1nc2c(c(=O)[nH]1)N(C=O)C(CNc1ccc(C(=O)N[C@@H](CCC(=O)O)C(=O)O)cc1)CN2 (stereo partly shown) [leucovorin, Leucovorin (folinic acid)] | ≥ 1 µg/mL | ~10 µg/mL | – | – |
| CN(Cc1cnc2nc(N)nc(N)c2n1)c1ccc(C(=O)N[C@@H](CCC(=O)O)C(=O)O)cc1 [methotrexate, Methotrexate] | – | – | 2 to 3 h | slightly higher cytotoxicity |
